Results from US11078207B2, “Substituted pyrrolo[2,3-d]pyrimidines as HER2 inhibitors” (TAIHO PHARMACEUTICAL CO., LTD., priority 2019, dated 2021).

What was measured:
HER2 = molecular target: T1, HER2 (Homo sapiens, UniProt P04626); assay: Inhibitory effect (in vitro) on HER2 phosphorylation activity; type: biochemical; settings: recombinant human HER2, ATP 5 μM, 25° C. 30 minutes
T1 construct: purchased Carna Biosciences, Inc
Excerpt: In order to determine conditions for a method of measuring the in vitro inhibitory activity of a compound against HER2 phosphorylation activity, based on the report regarding a HER2 kinase reaction using, as a substrate, a peptide having the same sequence (5-FAM-[…]-CONH2) as that of ProfilerPro Peptide 22 of PerkinElmer (Xie H et al., PLoS One. 2011; 6(7): e21487), ProfilerPro Peptide 22 was used as a substrate. A purified recombinant human HER2 protein used in the present test was purchased from Carna Biosciences, Inc. Upon the measurement of the inhibitory activity of the compound, first, the compound of the present invention was diluted stepwise with dimethyl sulfoxide (DMSO). […] To the reaction solution, EDTA was added to a final concentration of 30 mM, so as to terminate the reaction. Finally, using LabChip (registered trademark) EZ Reader II (PerkinElmer), an unphosphorylated substrate peptide (S) and a phosphorylated peptide (P) were separated and detected according to microchannel capillary electrophoresis.

[1] = molecular target: HER2 exon 20 insertion mutant (HER2ex20insYVMA, A775_G776insYVMA) (Homo sapiens, UniProt P04626, DUP772-775); assay: Inhibitory action (in vitro) against HER2 exon 20 insertion mutant phosphorylation activity; type: biochemical; settings: 30 min pre-incubation, ATP 200 μM, 25° C. 220 minutes
Chain of HER2 exon 20 insertion mutant (HER2ex20insYVMA, A775_G776insYVMA) (P04626 with tags, fused parts or gaps DUP772-775): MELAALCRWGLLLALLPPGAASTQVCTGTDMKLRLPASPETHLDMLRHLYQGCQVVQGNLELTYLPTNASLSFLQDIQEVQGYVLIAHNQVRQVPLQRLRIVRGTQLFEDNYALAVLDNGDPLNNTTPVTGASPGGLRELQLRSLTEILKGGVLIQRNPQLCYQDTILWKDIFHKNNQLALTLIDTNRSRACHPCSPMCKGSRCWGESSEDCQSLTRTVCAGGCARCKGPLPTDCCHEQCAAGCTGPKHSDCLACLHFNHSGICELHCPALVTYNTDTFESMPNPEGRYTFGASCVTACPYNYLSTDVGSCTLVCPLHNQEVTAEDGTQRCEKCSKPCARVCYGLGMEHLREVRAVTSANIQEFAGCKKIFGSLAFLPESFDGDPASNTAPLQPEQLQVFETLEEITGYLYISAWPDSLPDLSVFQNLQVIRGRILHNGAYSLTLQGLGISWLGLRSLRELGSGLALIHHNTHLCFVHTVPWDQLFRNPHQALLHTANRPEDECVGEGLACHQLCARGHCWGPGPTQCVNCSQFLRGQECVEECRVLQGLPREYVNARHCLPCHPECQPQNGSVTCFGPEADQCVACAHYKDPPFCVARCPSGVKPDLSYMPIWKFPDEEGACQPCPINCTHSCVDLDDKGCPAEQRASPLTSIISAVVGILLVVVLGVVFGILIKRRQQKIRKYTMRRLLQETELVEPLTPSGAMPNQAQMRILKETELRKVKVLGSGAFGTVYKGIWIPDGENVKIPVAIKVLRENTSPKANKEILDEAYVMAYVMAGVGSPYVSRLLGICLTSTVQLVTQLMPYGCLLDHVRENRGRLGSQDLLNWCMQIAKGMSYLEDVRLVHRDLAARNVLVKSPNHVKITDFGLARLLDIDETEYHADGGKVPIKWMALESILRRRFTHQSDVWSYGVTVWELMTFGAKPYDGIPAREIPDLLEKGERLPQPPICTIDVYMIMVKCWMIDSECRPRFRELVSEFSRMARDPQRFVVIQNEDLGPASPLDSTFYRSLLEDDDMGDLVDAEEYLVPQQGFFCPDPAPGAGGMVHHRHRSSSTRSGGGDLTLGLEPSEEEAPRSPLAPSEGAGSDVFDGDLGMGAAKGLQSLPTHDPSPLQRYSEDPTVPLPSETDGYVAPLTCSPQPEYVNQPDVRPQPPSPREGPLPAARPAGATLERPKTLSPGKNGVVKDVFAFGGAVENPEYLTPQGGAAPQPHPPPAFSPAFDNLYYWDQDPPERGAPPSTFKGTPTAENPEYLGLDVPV
Excerpt: In order to determine conditions for a method of measuring the in vitro inhibitory activity of a compound against HER2 exon 20 insertion mutant phosphorylation activity, as in the case of HER2, ProfilerPro Peptide 22 was used as a substrate. A purified recombinant human HER2 exon 20 insertion mutant (A775_G776insYVMA) protein is shown in SEQ ID NO: 7, and was purchased from SignalChem. Upon the measurement of the inhibitory activity of the compound, first, the compound of the present invention was diluted stepwise with dimethyl sulfoxide (DMSO). Subsequently, the HER2 exon 20 insertion mutant protein and the compound of the present invention in DMSO solution (final concentration of DMSO: 5%) were added into a buffer for the kinase reaction (13.5 mM Tris (pH 7.5), 2 mM dithiothreitol, and 0.009% Tween 20), and the obtained mixture was then pre-incubated at 25° C. for 30 minutes. Thereafter, the substrate peptide (final concentration: 1 μM), manganese chloride (final concentration: 25 mM), magnesium chloride (final concentration: 20 mM), and ATP (final concentration: 200 μM) were added into the reaction mixture, and the thus obtained mixture was then incubated at 25° C. for 220 minutes, so that the kinase reaction was carried out. To the reaction solution, EDTA was added to a final concentration of 30 mM, so as to terminate the reaction. Finally, using LabChip (registered trademark) EZ Reader II (PerkinElmer), an unphosphorylated substrate peptide (S) and a phosphorylated peptide (P) were separated and detected according to microchannel capillary electrophoresis.

SK-BR-3 cells = assay: Growth inhibitory activity against HER2 expressing cell line SK-BR-3; type: cell-based; settings: Homo sapiens, SK-BR-3, 72 h; 3 days, CellTiter-Glo 2.0
Experimental: SK-BR-3 cells as a HER2 overexpressing human breast cancer cell line were suspended in a McCoy's 5a medium (manufactured by Life Technologies) supplemented with 10% fetal bovine serum. The cell suspension was seeded in each well of a 384-well flat-bottom microplate, and was then cultured in a 5% carbon dioxide gas-containing culture vessel at 37° C. for 1 day. Thereafter, the compound of the present invention was dissolved in DMSO, and the compound was diluted to 500 times the final concentration in DMSO. The compound in the DMSO solution was diluted with DMSO solution or the medium used in the suspension of the cells, and the obtained solution was then added to each well of the culture plate so that the final concentration of DMSO was 0.2%. The obtained mixture was further cultured in the 5% carbon dioxide gas-containing culture vessel at 37° C. for 3 days. After completion of the culture for 3 days in the presence of the compound, the cells were counted using CellTiter-Glo 2.0 (manufactured by Promega), and the growth inhibition percentage was then calculated according to the following equation. […] Growth inhibitory percentage (%)=(C−T)/(C)×100 T: Emission intensity from the well to which the test compound was added C: Emission intensity from the well to which the test compound was not added

Ba/F3-HER2insYVMA cells = Ba/F3-HER2insYVMA cells (Homo sapiens, UniProt P04626, DUP772-775, cells depend on it); assay: Growth inhibitory activity against HER2 exon 20 insertion mutant expressing cell line; type: cell-based, mouse; settings: 3 days, CellTiter-Glo 2.0, read-out: HER2ex20insYVMA cell growth inhibitory activity IC50 value
Chain of Ba/F3-HER2insYVMA cells (P04626 with tags, fused parts or gaps DUP772-775): as above
Experimental: Growth inhibitory activity against the HER2 exon 20 insertion mutant was measured using Ba/F3 cells that were a mouse B lymphocyte precursor cell line, into which a human HER2 exon 20 insertion mutant gene had been introduced. The Ba/F3 cells were maintained in an RPMI-1640 medium (Thermo Fisher Scientific) supplemented with 10% fetal bovine serum (FBS), 100 U/mL penicillin, 100 μg/mL streptomycin (Thermo Fisher Scientific) and 1 ng/mL mouse interleukin-3 (mIL-3) (CST).
Upon evaluation of cell growth inhibitory activity, the Ba/F3-HER2insYVMA cells were suspended in an RPMI-1640 medium supplemented with 10% FBS, 100 U/mL penicillin, and 100 μg/mL streptomycin. The cell suspension was seeded in each well of a 96-well flat-bottom microplate, and was then cultured in a 5% carbon dioxide gas-containing culture vessel at 37° C. for 1 day. The compound of the present invention was dissolved in DMSO, and was then diluted with DMSO or the medium used in the suspension of the cells. The obtained solution was then added to each well of the culture plate, so that the final concentration of DMSO became 0.2%. The obtained mixture was further cultured in the 5% carbon dioxide gas-containing culture vessel at 37° C. for 3 days. After completion of the culture for 3 days in the presence of the compound, the cells were counted using CellTiter-Glo 2.0 (manufactured by Promega), and the growth inhibition percentage was then calculated according to the following equation. […] Growth inhibitory percentage (%)=(C−T)/(C)×100 T: Emission intensity from the well to which the test compound was added C: Emission intensity from the well to which the test compound was not added

NCI-N87 cells = assay: Growth inhibitory activity against HER2 expressing cell line NCI-N87; type: cell-based; settings: Homo sapiens, NCI-N87, 72 h; 3 days, CellTiter-Glo 2.0
Experimental: NCI-N87 cells as a HER2 overexpressing human stomach cancer cell line (American Type Culture Collection, Cat No. ATCC (registered trademark) CRL-5822) were suspended in an RPMI640 medium (Wako Pure Chemical Industries, Ltd.) supplemented with 10% fetal bovine serum. Subsequently, the cell suspension was seeded in each well of a 96-well flat-bottom microplate, and was then cultured in a 5% carbon dioxide gas-containing culture vessel at 37° C. for 1 day. Thereafter, the compound of the present invention was dissolved in DMSO, and the compound was diluted to 1000 times the final concentration in DMSO. The compound in the DMSO solution was diluted with the medium used in the suspension of the cells, and the obtained solution was then added to each well of the culture plate, so that the final concentration of DMSO became 0.1%. Regarding a control well, DMSO was diluted with the medium used in the suspension of the cells, and the obtained solution was then added to each well of the culture plate, so that the final concentration of DMSO became 0.1%. After addition of a drug solution, the obtained mixture was further cultured in the 5% carbon dioxide gas-containing culture vessel at 37° C. for 3 days. After completion of the culture for 3 days in the presence of the compound, the cells were counted using CellTiter-Glo 2.0 (manufactured by Promega) in accordance with the protocols recommended by Promega. The growth inhibition percentage was calculated according to the following equation. […] Growth inhibitory percentage (%)=(C−T)/(C)×100 T: Emission intensity from the well to which the test compound was added C: Emission intensity from the well to which the test compound was not added

[2] = Evaluation of oral absorbability; type: in vivo, BALB/cA mice; settings: mouse; plasma, oral 50 mg/kg/day, BALB/cA mice
Experimental: The compound of the present invention was suspended or dissolved in 0.5% HPMC aqueous solution and 0.1 N hydrochloric acid, and the obtained suspension or solution was orally administered to BALB/cA mice (CLEA Japan, Inc.) at a dose of 50 mg/kg/day. At 0.5, 1, 2, 4 and 6 hours after completion of the oral administration, blood was collected from the facial vein over time, so as to obtain plasma. The concentration of the compound in the obtained plasma was measured by LC-MS/MS, and the oral absorbability of the present compound was evaluated.

p-gp or Bcrp = settings: Non Patent Literature 5; cited from earlier work
[3] = non-clinical tests, Non Patent Literature 5; cited from earlier work
brain metastatic cancer = settings: clinical tests, Non Patent Literatures 6-9; cited from earlier work

T1 sequence (P04626 23-1255): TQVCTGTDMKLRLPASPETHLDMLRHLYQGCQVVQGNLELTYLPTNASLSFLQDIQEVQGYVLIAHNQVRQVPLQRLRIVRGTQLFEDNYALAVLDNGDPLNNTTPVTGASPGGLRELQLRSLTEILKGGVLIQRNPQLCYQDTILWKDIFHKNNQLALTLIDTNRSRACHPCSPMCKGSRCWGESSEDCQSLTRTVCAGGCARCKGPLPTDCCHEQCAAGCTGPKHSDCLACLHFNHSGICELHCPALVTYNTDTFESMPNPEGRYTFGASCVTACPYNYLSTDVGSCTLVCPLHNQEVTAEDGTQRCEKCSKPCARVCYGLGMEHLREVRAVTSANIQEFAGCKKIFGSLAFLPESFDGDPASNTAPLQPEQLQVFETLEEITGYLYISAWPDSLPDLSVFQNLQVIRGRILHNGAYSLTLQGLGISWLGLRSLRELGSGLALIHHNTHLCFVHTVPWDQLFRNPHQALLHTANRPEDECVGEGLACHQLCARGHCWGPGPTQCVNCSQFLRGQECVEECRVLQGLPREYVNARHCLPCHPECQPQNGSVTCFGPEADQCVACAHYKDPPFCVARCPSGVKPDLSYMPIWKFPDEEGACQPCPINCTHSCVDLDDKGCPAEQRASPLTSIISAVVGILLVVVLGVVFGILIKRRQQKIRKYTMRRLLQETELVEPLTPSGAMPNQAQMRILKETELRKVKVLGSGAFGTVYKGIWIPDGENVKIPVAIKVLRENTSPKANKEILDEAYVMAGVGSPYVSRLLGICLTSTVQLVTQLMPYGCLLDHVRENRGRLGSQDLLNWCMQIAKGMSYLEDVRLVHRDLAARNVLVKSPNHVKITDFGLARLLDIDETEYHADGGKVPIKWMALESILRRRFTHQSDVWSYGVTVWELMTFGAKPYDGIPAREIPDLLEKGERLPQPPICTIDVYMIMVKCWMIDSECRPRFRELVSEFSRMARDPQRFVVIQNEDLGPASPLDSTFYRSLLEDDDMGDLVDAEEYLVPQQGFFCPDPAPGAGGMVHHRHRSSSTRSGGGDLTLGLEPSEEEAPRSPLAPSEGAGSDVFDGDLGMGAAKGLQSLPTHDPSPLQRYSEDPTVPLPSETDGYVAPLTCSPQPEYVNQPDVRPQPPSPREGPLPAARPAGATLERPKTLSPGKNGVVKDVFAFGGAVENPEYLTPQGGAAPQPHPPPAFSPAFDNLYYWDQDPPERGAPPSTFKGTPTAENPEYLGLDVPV

Row | IC50 (HER2) [nM] | IC50 [1] [nM] | IC50 (SK-BR-3 cells) [nM] | GI50 (Ba/F3-HER2insYVMA cells) [nM] | AUC(0-t) [2] [µM·h] | SMILES | IC50 (NCI-N87 cells) [nM] | substrate of p-gp or Bcrp (p-gp or Bcrp) | brain penetration properties [3] | effects against brain metastatic cancer (brain metastatic cancer)
1 | 4.4 | 1.1 | 17 | 50 | 6.1 | C=CC(=O)N1C[C@H](n2c(C#CC3CC3)c(C(=O)N[C@H](C)c3ccccc3)c3c(N)ncnc32)C[C@@H]1COCC [Example 19, 7-((3R,5R)-1-acryloyl-5-(ethoxymethyl)pyrrolidin-3-yl)-4-amino-6-(cyclopropylethynyl)-N—((R)-1-phenylethyl)-7H-pyrrolo[2,3-d]pyrimidine-5-carboxamide] | 7.9 | – | – | –
2 | – | – | – | – | – | CS(=O)(=O)CCNCc1ccc(-c2ccc3ncnc(Nc4ccc(OCc5cccc(F)c5)c(Cl)c4)c3c2)o1 [Lapatinib] | – | substrates of p-gp or Bcrp | limited | sufficient effects of these agents could not be obtained
3 | – | – | – | – | – | CCOc1cc2ncc(C#N)c(Nc3ccc(OCc4ccccn4)c(Cl)c3)c2cc1NC(=O)/C=C/CN(C)C [Neratinib] | – | substrates of p-gp or Bcrp | limited | sufficient effects of these agents could not be obtained
